# Test results from article PMC7089538, “The effects of intra-stomach obestatin administration on intestinal contractility in neonatal piglets fed milk formula” (PLoS ONE, 2020).
# Like-named read-outs stand apart in the source and are kept apart here. Marks after values point to notes of the source that are not given here. Where no end group is shown, it is not given here.
# Columns and labels:
# [1] = system: duodenum; assay: ACh-stimulated or atropine-treated contractions; format: in vivo, piglets (Polish Landrace x Pietrain); conditions: 6 days, duodenum strips, atropine pretreatment (ATR^-6), mean ± SEM
# [2] = in vivo; conditions: male, Polish Landrace x Pietrain, pig, po, obestatin concentration in the blood plasma
# [3] = system: duodenum; assay: Spontaneous contractility of whole-thickness preparations in organ bath after 6-day enteral obestatin; format: in vivo, piglets (Polish Landrace x Pietrain); conditions: O15: obestatin 15 μg/kg BW intra-stomach every 8 h, 6 days; duodenal segment (Fig 2)
# Experimental: (§1) Piglets' BW was recorded every morning. […] The protein concentration in the milk formula was 20%. […] The tissues were attached to isotonic transducers (Letica Scientific Instruments, Spain) under a load of 1.0 g that were coupled with a PowerLab recording system (ADInstruments, Sydney, Australia). […] The tissues were then washed and allowed to equilibrate. […] Half of randomly selected jejunal segments were pre-treated with atropine.
# [4] = system: middle jejunum; assay: as above; format: in vivo, piglets (Polish Landrace x Pietrain); conditions: 6 days, middle jejunum (Fig 2)
# Experimental: as §1
# [5] = system: duodenum; assay: Histology: thickness of intestinal muscularis layer; format: in vivo, piglets (Polish Landrace x Pietrain); conditions: 6 days, H&E histometry, mean ± SEM
# Experimental: (§2) Piglets' BW was recorded every morning. […] The protein concentration in the milk formula was 20%. […] Briefly, the samples were routinely embedded in paraffin and cut into 4.5 μm sections and applied to silane-treated slides. Next, the sections were immersed in xylene for dewaxing and then in descending grades of alcohol for rehydration. The segments were routinely stained using hematoxylin and eosin.
# [6] = system: middle jejunum; assay: as above; format: in vivo, piglets (Polish Landrace x Pietrain); conditions: 6 days, H&E histometry, mean ± SEM
# Experimental: as §2
# [7] = system: middle jejunum; conditions: middle jejunum strips; for EFS-evoked amplitude of contraction: 6 days, mean ± SEM
# [8] = system: duodenum; assay: ACh-stimulated or atropine-treated contractions; format: in vivo, piglets (Polish Landrace x Pietrain); conditions: 6 days, duodenum strips, mean ± SEM
# Experimental: as §1
# [9] = O10: obestatin 10 μg/kg BW intra-stomach every 8 h
# [10] = O15: obestatin 15 μg/kg BW intra-stomach every 8 h
# [11] = O2: obestatin 2 μg/kg BW intra-stomach every 8 h
substance,measurement,setting,value
FNAPFDVGIKLSGAQYQQHGRAL-NH2 [obestatin],amplitude of atropine treated contractions,[1]; [9],0.97 ± 0.1 mm
same,amplitude of atropine treated contractions,[1]; [10],1.0 ± 0.1 mm
same,level at 0.5 h,[2]; 2 ug/kg BW,0.369 ± 0.026 ng/mL
same,level at 1 h,[2]; 2 ug/kg BW,0.37 ± 0.023 ng/mL
same,level at 0.5 h,[2]; 10 ug/kg BW,0.413 ± 0.011 ng/mL
same,level at 1 h,[2]; 10 ug/kg BW,0.475 ± 0.022 ng/mL
same,level at 0.5 h,[2]; 15 ug/kg BW,0.405 ± 0.026 ng/mL
same,level at 1 h,[2]; 15 ug/kg BW,0.45 ± 0.053 ng/mL
same,amplitude of spontaneous contractions compared to C,[3],significantly higher
same,amplitude of spontaneous contractions compared to C,[4]; [9],significant increase in the amplitude of contractions was observed in C piglets in comparison to O10 and O15 groups
same,amplitude of spontaneous contractions compared to C,[4]; [10],significant increase in the amplitude of contractions was observed in C piglets in comparison to O10 and O15 groups
same,Thickness of muscularis layer,[5]; [11],106 ± 11^b μm
same,Thickness of muscularis layer,[5]; [9],107 ± 8^b μm
same,Thickness of muscularis layer,[5]; [10],89 ± 8^b μm
same,Thickness of muscularis layer,[6]; [11],88 ± 9^a μm
same,Thickness of muscularis layer,[6]; [9],63 ± 7^b μm
same,Thickness of muscularis layer,[6]; [10],66 ± 4^b μm
same,EFS-evoked amplitude of contraction,"[7]; O2: obestatin 2 μg/kg BW intra-stomach every 8 h, Basal, EFS 0.5 Hz",0.53 ± 0.26^a^c mm
same,EFS-evoked amplitude of contraction,"[7]; O2: obestatin 2 μg/kg BW intra-stomach every 8 h, Basal, EFS 5 Hz",0.70 ± 0.35^a mm
same,EFS-evoked amplitude of contraction,"[7]; O2: obestatin 2 μg/kg BW intra-stomach every 8 h, Basal, EFS 50 Hz",1.22 ± 0.59^a mm
same,EFS-evoked amplitude of contraction,"[7]; O2: obestatin 2 μg/kg BW intra-stomach every 8 h, TTX 10^−6 M, EFS 0.5 Hz",0.17 ± 0.07 mm
same,EFS-evoked amplitude of contraction,"[7]; O2: obestatin 2 μg/kg BW intra-stomach every 8 h, TTX 10^−6 M, EFS 5 Hz",0.20 ± 0.08 mm
same,EFS-evoked amplitude of contraction,"[7]; O2: obestatin 2 μg/kg BW intra-stomach every 8 h, TTX 10^−6 M, EFS 50 Hz",0.31 ± 0.17 mm
same,EFS-evoked amplitude of contraction,"[7]; O10: obestatin 10 μg/kg BW intra-stomach every 8 h, Basal, EFS 0.5 Hz",1.75 ± 0.18^a^d mm
same,EFS-evoked amplitude of contraction,"[7]; O10: obestatin 10 μg/kg BW intra-stomach every 8 h, Basal, EFS 5 Hz",1.75 ± 0.18^a^b mm
same,EFS-evoked amplitude of contraction,"[7]; O10: obestatin 10 μg/kg BW intra-stomach every 8 h, Basal, EFS 50 Hz",1.49 ± 0.30^a mm
same,EFS-evoked amplitude of contraction,"[7]; O10: obestatin 10 μg/kg BW intra-stomach every 8 h, TTX 10^−6 M, EFS 0.5 Hz",0.28 ± 0.10 mm
same,EFS-evoked amplitude of contraction,"[7]; O10: obestatin 10 μg/kg BW intra-stomach every 8 h, TTX 10^−6 M, EFS 5 Hz",0.30 ± 0.12 mm
same,EFS-evoked amplitude of contraction,"[7]; O10: obestatin 10 μg/kg BW intra-stomach every 8 h, TTX 10^−6 M, EFS 50 Hz",0.45 ± 0.15 mm
same,EFS-evoked amplitude of contraction,"[7]; O15: obestatin 15 μg/kg BW intra-stomach every 8 h, Basal, EFS 0.5 Hz",2.47 ± 0.23^b^d mm
same,EFS-evoked amplitude of contraction,"[7]; O15: obestatin 15 μg/kg BW intra-stomach every 8 h, Basal, EFS 5 Hz",2.74 ± 0.37^b mm
same,EFS-evoked amplitude of contraction,"[7]; O15: obestatin 15 μg/kg BW intra-stomach every 8 h, Basal, EFS 50 Hz",3.76 ± 0.29^b mm
same,EFS-evoked amplitude of contraction,"[7]; O15: obestatin 15 μg/kg BW intra-stomach every 8 h, TTX 10^−6 M, EFS 0.5 Hz",0.46 ± 0.23 mm
same,EFS-evoked amplitude of contraction,"[7]; O15: obestatin 15 μg/kg BW intra-stomach every 8 h, TTX 10^−6 M, EFS 5 Hz",0.34 ± 0.11 mm
same,EFS-evoked amplitude of contraction,"[7]; O15: obestatin 15 μg/kg BW intra-stomach every 8 h, TTX 10^−6 M, EFS 50 Hz",0.61 ± 0.27 mm
same,effect of obestatin on EFS-evoked contraction following pre-incubation with TTX,"[7]; TTX 10^−6 M, responses similar to saline-treated preparations",the effects of obestatin were blocked
same,amplitude of ACh stimulated contractions,"[8]; O2: obestatin 2 μg/kg BW intra-stomach every 8 h, ACh^-4 (10^−4 M, cumulative)",14.1 ± 1.2^a^b mm
same,amplitude of ACh stimulated contractions,"[8]; O2: obestatin 2 μg/kg BW intra-stomach every 8 h, ACh^-5 (10^−5 M, cumulative)",11.2 ± 0.7 mm
same,amplitude of ACh stimulated contractions,"[8]; O2: obestatin 2 μg/kg BW intra-stomach every 8 h, ACh^-6 (10^−6 M, cumulative)",7.4 ± 0.9 mm
same,amplitude of ACh stimulated contractions,"[8]; O2: obestatin 2 μg/kg BW intra-stomach every 8 h, ACh^-7 (10^−7 M, cumulative)",7.1 ± 0.7 mm
same,amplitude of ACh stimulated contractions,"[8]; O2: obestatin 2 μg/kg BW intra-stomach every 8 h, ACh^-8 (10^−8 M, cumulative)",7.0 ± 0.7 mm
same,amplitude of ACh stimulated contractions,"[8]; O2: obestatin 2 μg/kg BW intra-stomach every 8 h, ACh^-9 (10^−9 M, cumulative)",6.2 ± 0.3 mm
same,amplitude of atropine treated contractions,"[8]; O2: obestatin 2 μg/kg BW intra-stomach every 8 h, atropine pretreatment (ATR^-6)",1.26 ± 0.2 mm
same,amplitude of ACh stimulated contractions,"[8]; O10: obestatin 10 μg/kg BW intra-stomach every 8 h, ACh^-4 (10^−4 M, cumulative)",12.3 ± 1.1^a^b mm
same,amplitude of ACh stimulated contractions,"[8]; O10: obestatin 10 μg/kg BW intra-stomach every 8 h, ACh^-5 (10^−5 M, cumulative)",8.2 ± 0.9 mm
same,amplitude of ACh stimulated contractions,"[8]; O10: obestatin 10 μg/kg BW intra-stomach every 8 h, ACh^-6 (10^−6 M, cumulative)",6.3 ± 0.9 mm
same,amplitude of ACh stimulated contractions,"[8]; O10: obestatin 10 μg/kg BW intra-stomach every 8 h, ACh^-7 (10^−7 M, cumulative)",6.1 ± 0.9 mm
